“Also recorded” adds a separate entry of the source.
Legend:
MDA-MB-231 cells = assay: Cell proliferation assay (CellTiter 96) in ER negative breast cancer cells; assay type: cell-based; conditions: 6 days treatment
Protocol: (§1) Cells were seeded in 96-well plates at a density of 15,000 (MDA-MB-231) or 10,000 (T47D) cells/100 μl/well in phenol red-free DMEM (Gibco-BRL) containing 10% (MDA-MB-231) or 2% (T47D) charcoal dextran treated FBS (Perbio Science GmbH). Treatment media containing either 0.1% DMSO (control) or 0.1% DMSO with increasing concentrations of compounds (as indicated) were added on the following day and replaced at 72 h intervals until the end of the experiment. At 6 days (MDA-MB-231) or 8 days (T47D) after initiation of the treatment a colorimetric proliferation assay was performed using CellTiter 96 Aqueous nonradioactive proliferation assay as directed by the manufacturer (Promega). Cell proliferation rates were measured as absorbance of the formazan product at 490 nm. Values are expressed as percentage of control (DMSO) and represent the means of three replicates.

T47D cells = assay: Cell proliferation assay (CellTiter 96) in ER positive breast cancer cells; assay type: cell-based; conditions: 8 days treatment, 1 nM to 100 nM
Protocol: as §1

human ERR alpha (NR3B1) = assay: In vitro LANCE (TR-FRET) screening for compounds which influence ERRa binding to coactivator SRC1 peptide; assay type: biochemical; conditions: see figures
Protocol: The present invention relates to a compound as described above wherein said compounds is capable of binding the NR3B1 receptor protein or a portion thereof according to SEQ ID NO. 1 (cf. FIG. 3 A to D) or a mammalian homologue thereof. The claimed compound can bind to the NR3B1 receptor protein or a portion thereof in a mixture comprising 10-200 ng of NR3B1 receptor protein or a portion thereof, preferably the ligand binding domain, 20 mM Tris/HCl at pH 7.9; 60 mM KCl; 5 mM MgCl2; 160 ng/μl BSA in a total volume of preferably about 25 μl.
For screening purposes a fragment of the open reading frame of human ERR alpha (NR3B1-(Acc. No: NM_004451)) encoding aminoacids […] was amplified by standard RT PCR procedures (see figures; SEQ ID NO. 1 and 2). […]
For screening of compound libraries as provided for by the methods shown below in the examples for substances which influence the ERRa/SRC1 interaction, the Perkin Elmer LANCE technology was applied. […] For ease of handling and reduction of background from compound fluorescence LANCE technology makes use of generic fluorophore labels and time resoved detection (for detailed description see Hemmilä I, Blomberg K and Hurskainen P, Time-resolved resonance energy transfer (TRFRET) principle in LANCE, Abstract of Papers Presented at the 3 rd Annual Conference of the Society for Biomolecular Screening, September, California (1997)). […]

Row | Compound | effect on proliferation of MDA-MB-231 cells (ER negative) (MDA-MB-231 cells) | effect on proliferation of T47D cells (ER positive) (T47D cells) | effect on proliferation of T47D cells (ER positive) (T47D cells; listed as E2) | active as antagonist of the NR3B1 human nuclear receptor (human ERR alpha (NR3B1))
1 | C[C@]12CC[C@@H]3c4ccc(O)cc4CC[C@H]3[C@@H]1CC[C@@H]2O [17β-estradiol] | did not | stimulated | stimulate the growth | 
2 | CC/C(=C(/CC)c1ccc(O)cc1)c1ccc(O)cc1 [DES, Diethylstilbestrol] | inhibited proliferation; also recorded: inhibit growth | stimulated; also recorded: stimulate the growth |  | 
3 | Cc1ccc(C)c(-c2cc(-c3ccc(O)cc3)nn2C)c1 [formula 5] |  |  |  | active as antagonist
4 | Cc1cc(C)cc(-n2nc(-c3ccc(O)cc3)cc2-c2ccc(C)o2)c1 [formula 6] |  |  |  | active as antagonist
